Like-named read-outs stand apart in the source and are kept apart here.
What was measured:
[1] = in vivo; conditions: male, Sprague-Dawley, rat, po; for half-life: t1/2
Procedure: (§1) Thirty male Sprague–Dawley rats (200 ± 20 g) were purchased from the Nanjing Qinglongshan Experimental Animal Center (Nanjing, China). […] All rats were divided randomly into two groups: ZJTSD-dosed group (n = 27) and control group (n = 3). The ZJTSD-dosed group was given the ZJTSD solution by gavage (i.g.) at a dosage of 1 mL/100 g body weight of rats, and the control group was given 0.9% normal saline at the same dose, twice a day for a week. After the last administration, the blood was collected from the hepatic portal vein at 15 min, 30 min, 1 h, 2 h, 4 h, 6 h, 8 h, 12 h, and 24 h, and 3 rats were taken at each time point.
(§2) The blood samples of rats were centrifuged at 4,000 rpm for 10 min to obtain the serum. The serum sample (1 mL) was processed with a 3-fold volume using methanol for protein precipitation, with epicoprostanol serving as the internal standard (digoxin and clarithromycin). After vortexing for 3 min, the mixture was centrifuged at 18,000 rpm for 10 min. Subsequently, the supernatant was evaporated at 45°C using a vacuum concentrator. After evaporating the solvent, 150 μL of methanol/water (1:1, v/v) was added, vortexed, sonicated, and then centrifuged at 18,000 rpm for 10 min at 4°C. The resulting supernatant was used for further analysis.
(§3) Liquid chromatographic separation was performed using an AB SCIEX LC™ 2.0 system (AB SCIEX, United States) fitted with an Acquity UPLC BEH C18 column (100 mm × 2.1 mm, 1.7 μm; Ireland). The mobile phases in negative and positive ion modes consisted of 0.1% FA aqueous solution (A) and acetonitrile containing 0.1% FA (B). The program of the elution gradient was set as follows: 0∼5 min, 2%∼35 %B; 5∼7 min, 35%∼50%; 7∼10 min, 50%∼70%; 10∼15 min, 70%∼90 %B; 15∼18 min, 90%∼90 %B; 18∼18.5 min, 90%∼2 %B; and 18.5∼20 min, 2%∼2 %B. The injection volume was 3 µL. The flow rate and the column temperature were set at 0.3 mL/min and 40°C, respectively.
(§4) The mass spectrometry analysis was performed on a SCIEX ZenoTOF™ 7600 system (AB SCIEX, United States), which was calibrated in the high-sensitivity mode for every 10 samples. Spectra were acquired in the TOF/MS-IDA-TOF MS/MS mode with the ESI source operating in positive and negative ion modes. MS parameters were set as follows: ionization source, ESI; spray voltage, 5,500 kV/–4,500 kV; collision energy, 40 V/–40 V; declustering potential, 80 V/–80 V; ion source temperature, 550°C; and scan range, 100–1250 m/z. Data acquisition and processing were performed using SCIEX OS 2.2 and PeakView 2.2.
(§5) A semi-quantitative method was adopted based on the correction peak area versus time ([Wang et al., 2011]; [Lin et al., 2019]). The mean serum time-course profile of pharmacokinetics based on the peak area ratio versus time was plotted using Origin 2018. The kinetic analysis of the peak area ratio (×1,000)–time curve was calculated using Phoenix WinNonlin 8.1 (Phoenix, American) software and illustrated.

[2] = design: AUC(0→t) / Cmax: unit not given beside the values; conditions: rat, in vivo
[3] = Multi-compound pharmacokinetics of ZJTSD in rat serum, semi-quantitative UPLC-Q/TOF-MS (peak area ratio versus time, non-compartmental); conditions: male, Sprague-Dawley, rat, serum (hepatic portal vein blood), po, 1 mL/100 g body weight
Procedure: as §1, §2, §3, §4, §5

[4] = test system: DN mice; design: method as in Tian et al., 2018; conditions: ref Tian et al., 2018; cited from earlier work
[5] = test system: DN; design: method as in Guo et al., 2017; conditions: in vitro and in vivo; ref Guo et al., 2017; cited from earlier work

SMILES	AUC(0→t) [2]	Cmax [2]	MRT(0→t) [2]	Tmax [2]	t1/2 [2]	other results
CCCCOC(=O)c1ccccc1C(=O)OCCCC [P49, Dibutyl phthalate]	542.84±7.58	26.50±1.13	–	–	–	MRT last [1]: 12.1 ± 0.17 h; Tmax [1]: 8.08 ± 6.78 h
O=C1C[C@@H](c2ccc(O)cc2)Oc2cc(O)ccc21 [M18]	–	–	–	–	–	detection in serum / absorbed form ([2]; po): detected in vivo
CCCCCCCCCCCCCCCC(=O)OC[C@@H](O)COP(=O)([O-])OCC[N+](C)(C)C [P50, 1-O-Hexadecanoyl-sn-glycero-3-phosphocholine]	149276.86±8351.53	11488.73±739.96	–	–	–	MRT last [1]: 10.2 ± 0.58 h; Tmax [1]: 1 ± 0.87 h; half-life [1]: 21.9 ± 12.8 h
Cc1cc(O[C@@H]2O[C@H](CO)[C@@H](O)[C@H](O)[C@H]2O)cc2oc(CC(C)O)cc(=O)c12 (stereo partly drawn) [P7, 2-(2-Hydroxypropyl)-5-methyl-7-hydroxychromone-7-O-β-D-glucoside]	1.05±0.08	0.23±0.06	6.76±1.16	0.92±0.95	7.53±1.65	–
COc1cccc2c1C(=O)c1c(O)cc(C)cc1C2=O [P20, 8-Methyl chrysophanol]	49952.22±8257.37	15105.85±4254.91	4.30±0.34	0.67±0.29	3.38±0.96	level of exposure in the blood (in words) ([2]; po): higher level of exposure; pharmacokinetic behavior compared with other prototype compounds and metabolites (in words) ([2]; po): better pharmacokinetic behavior
Cc1cc(O)c2c(c1)C(=O)c1cc(O)cc(O)c1C2=O [P16, Emodin]	–	–	–	–	–	MRT last [3]: 5.84 ± 0.37 h; Tmax [3]: 2.83 ± 2.02 h; half-life ([3]; t1/2, prototype compounds of ZJTSD absorbed into rat serum, mean±SD, n=3): 8.19 ± 9.39 h; effect on urinary albumin, serum creatinine and blood urea nitrogen [4]: improved urinary albumin, serum creatinine, and blood urea nitrogen levels; detection in serum / absorbed form ([2]; po): absorbed as prototype compounds
Cc1cc(O)c2c(c1)C(=O)c1cc(O)ccc1C2=O [M61]	–	–	–	–	–	AUC (in words) ([2]; po): greater
CC(CO)C1=C(O)c2ccc3c(c2C(=O)C1=O)CCCC3(C)C (stereo not shown) [P31, Tanshinone V]	269.12±44.99	44.36±4.60	5.85±0.84	5.33±2.31	7.21	–
C[N+](C)(C)CCOP(=O)([O-])OCC(O)COCCCCCCCCCCCCCCC=O (stereo not shown) [M99]	–	–	–	–	–	Tmax ([2]; po): ≤ 3.5 h; elimination half-life (t1/2) ([2]; po): > 7.5 h; pharmacokinetic behavior compared with other prototype compounds and metabolites (in words) ([2]; po): better pharmacokinetic behavior
Cc1cc(O)c2c(c1)C(=O)c1cccc(O)c1C2=O [P13, Chrysophanol]	119599.26±21102.35	26478.39±12536.14	–	–	–	MRT last [1]: 4.89 ± 0.61 h; Tmax [1]: 1.67 ± 2.02 h; half-life [1]: 2.42 ± 1.63 h; level of exposure in the blood (in words) ([2]; po): higher level of exposure; effect on progression of DN [5]: significantly slowed the progression of DN
COc1cc2c(=O)c(-c3ccc(O)cc3)coc2cc1O[C@@H]1O[C@H](CO)[C@@H](O)[C@H](O)[C@H]1O [P9, Glycitin]	1.99±0.28	0.80±0.39	4.70±1.01	0.92±0.95	3.56±1.89	–
O=C(O)c1cc2c(cc1O)C(=O)c1ccccc1C2=O [M28]	–	–	–	–	–	AUC (in words) ([2]; po): greater; Tmax ([2]; po): ≤ 3.5 h; elimination half-life (t1/2) ([2]; po): less than 4 h; pharmacokinetic behavior compared with other prototype compounds and metabolites (in words) ([2]; po): better pharmacokinetic behavior
